Laboratory results taken from US5527940A, “Methanediphosphonate derivative, its manufacturing process and its pharmaceutical applications” (Toray Industries, Inc., priority 1991, dated 1996).

Tests used:
[1] = tested on: adjuvant arthritis model; assay: Adjuvant Arthritis Test; assay type: in vivo, 7 week old female Lewis rats; settings: subcutaneous daily days 8-21
Method: Multiple arthritis resembling human chronic articular rheumatism occurs when tubercule bacillus adjuvant is injected into rats. The antiinflammatory, antirheumatic and bone metabolism improving action of compounds of the present invention were investigated according to the following procedure using this adjuvant arthritis model.
0.1 mg of dried non-viable Mycobacterium butyricum cells were suspended in 0.1 ml of liquid paraffin followed by injection into the skin of the left hind limb of 7 week old female Lewis rats. The compounds obtained in the Examples were dissolved in sterilized distilled water and administered subcutaneously every day for two weeks from the 8th to 21st days after injection of adjuvant. During that time, the volumes of the right and left hind limbs were measured and the swelling rate was calculated according to the following formula: [formula]
Moreover, the swelling inhibition rates were also determined according to the following formula, and those values are shown in Table 1. [formula]
Soft X-ray radiographs were taken of the left and right hind limbs of the animals following sacrifice on day 22. The degree of bone destruction at five locations in the left and right hind limbs was evaluated based on the soft X-ray radiographs scoring those results among 5 ranks. Moreover, the bone destruction inhibition rate was calculated using the following formula, and those values are shown in Table 1. [formula]
Those results that were significant at a level of significance of P<0.001 with respect to a control group administered only sterilized distilled water according to the Student's t-test and Chukey's multiple comparison method were indicated with three asterisks (***), those results that were significant at a level of significance of P<0.01 were indicated with two asterisks (**), and those significant at a level of significance of P<0.05 were indicated with one asterisk (*).
The swelling inhibition rates for Example 7 and Example 33 are the values for day 14 and day 21.

[2] = tested on: IL-1 production by J774-1 mouse macrophage cells; assay: Action on IL-1 Production by Strain J774-1 Mouse Macrophage Cells (LPS stimulated); assay type: cell-based; settings: 100 μM compound, LPS 1 μg/ml, 24 hours, read-out: IL-1 Production Inhibition Rate with respect to Control Group
Method: It is also known that these cells produce IL-1 when stimulated with LPS. The inhibitory action on IL-1 production of compounds of the present invention was measured according to the following procedure using this cell line.
The J774-1 cells were cultured in RPMI-1640 medium containing 10% fetal bovine serum and 50 μM 2-mercaptoethanol followed by adjusting the number of cells to 2×10^5 cells/ml. 1 ml aliquots of this cell suspension were then placed in the wells of a 24 well plate and cultured for 30 minutes. Following culturing, LPS was added to a final concentration of 1 μg/ml. At the same time, compounds obtained in Examples were dissolved in sterilized distilled water and added at a concentration of 100 μM. […]
The samples obtained above were serially diluted by a factor of 2 in a 96 well multiplate at a capacity of 50 μl. […] The thymus cells were then cultured for 72 hours and IL-1 activity was determined from the growth rate of the cells. […] Using the absorbance of the pigment produced by this reduction at 570 nm as the index, the dilution factor of the sample when growth of thymus cells is induced by 50% was calculated in terms of the number of units of that sample by taking the case of induction of maximum growth of T cells by human gene recombinant IL-1 to be 100% growth, and growth in the case of not adding IL-1 to be 0%. […]

[3] = tested on: osteoclasts (mouse bone cells), resorption pit formation; assay: Bone resorption pit formation by mouse bone cells (osteoclasts) on ivory, active type-vitamin D3 stimulation; assay type: cell-based, ICR mice; settings: 10 nM active type-vitamin D3, 4 days
From the text: The balance between bone formation and bone destruction is disturbed during osteoporosis, with bone destruction considered to be accelerated. Bone destruction is believed to occur due to an increase in the activation and number of osteoclasts. Experiments have been conducted wherein bone resorption was induced with active type-vitanium D3 stimulation using mouse bone cells dispersed on ivory for the experimental model. The bone resorption inhibitory action of compounds of the present invention was measured using this model.
After isolating the femur and tibia from 10-15 day old ICR mice, the bone specimens were prepared into thin sections in α-MEM medium containing 5% fetal bovine serum to prepare an bone cells suspension containing marrow cells and bone matrix. Large fragments of bone were removed with nylon mesh. Viable total cells were counted with trypan blue exclusion test while osteoclasts were stained with tartaric acid-resistantacid phosphatase stain to prepare a cell suspension containing osteoclasts in a proportion of roughly 0.05-0.1%. The ivory was cut into thin sections having a thickness of 150 μm using a low-speed rotary diamond cutter. The thin sections were then punched to a size that matched the size of the wells of a 96 well plate. These ivory fragments were placed in a 96 well plate followed by addition of the cell suspension prepared above so that each well contained 500 osteoclasts. 10 nM active type-vitamin D3 was added as stimulant simultaneous to addition of the drugs of the present invention at concentrations of 10 μM and 100 μM. After culturing the cells for 4 days at 37° C. in an environment of 10% CO2, the resorption pits that formed on the ivory slices were stained with hematoxylin and counted by observing microscopically. The resorption pit formation inhibition rate was then calculated using the formula indicated below. [formula]
The results were statistically processed using the Student's t-test, and those results that were significant at a level of significance of P<0.05 with respect to an active type-vatanium D3 stimulation control group were indicated with one asterisk (*), while those results that were significant at a level of significance of P<0.01 were indicated with two asterisks (**).

## CSc1ccc(SC(P(=O)(O)O)P(=O)(O)O)cc1 [Example 2, (4-methylthiophenyl)thiomethanediphosphonic acid]
[1]; Day 22, soft X-ray score of left and right hind limbs
  Bone Destruction Inhibition Rate with respect to control group, Day 22: 62.3%
[1]; left (adjuvant-injected) hind limb, Day 16
  Swelling Inhibition Rate with respect to Control Group, Day 16, Left: 96.0%
[1]; left (adjuvant-injected) hind limb, Day 21
  Swelling Inhibition Rate with respect to Control Group, Day 21, Left: 122.5%
[1]; right hind limb, Day 16
  Swelling Inhibition Rate with respect to Control Group, Day 16, Right: 9.1%
[1]; right hind limb, Day 21
  Swelling Inhibition Rate with respect to Control Group, Day 21, Right: 30.6%
[2]
  inhibition at 100 µM: 51.4%
[3]; 10 μM compound
  resorption pit formation Inhibition Rate with respect to Control Group: 79.9 ± 3.12%
[3]; 100 μM compound
  resorption pit formation Inhibition Rate with respect to Control Group: 92.6 ± 1.08%
